Measured values from ChEMBL document CHEMBL1201862, “PubChem BioAssay data set” (2004).
Calls of active or inactive are those of the source.

How the values were obtained:
[1] = THP-1 cell cytotoxicity, dose response, cytotoxicity control, set 3 (AID 504852); type: functional; settings: Mycobacterium tuberculosis
[2] = HepG2 cell cytotoxicity, dose response, cytotoxicity control, set 3 (AID 504853); type: functional; settings: Mycobacterium tuberculosis
[3] = microbe, parasite or virus in culture; type: functional; settings: Mycobacterium tuberculosis
[4] = HepG2 cell cytotoxicity, cytotoxicity control, set 4 (AID 504910); type: functional; settings: Mycobacterium tuberculosis
[5] = Vero cell cytotoxicity, dose response, cytotoxicity control for M. tuberculosis growth inhibitor project, Vero cells, purified and synthesized compounds, set 4 (AID 504854); type: functional; settings: Mycobacterium tuberculosis
[6] = THP-1 cell cytotoxicity, cytotoxicity control, set 4 (AID 504911); type: functional; settings: Mycobacterium tuberculosis
[7] = Luminescence Cell-Based Dose Retest to Confirm Inhibitors of Cancer Stem Cells. [Related pubchem assays (depositor defined):AID2717, AID2721]; type: functional; settings: Homo sapiens
[8] = A Cell Based Secondary Assay to Explore Cytotoxicity in THP-1 Cells of Compounds that Modulate Mycobacterium tuberculosis in Media Containing Glycerol versus Media without Glycerol (2).; type: functional
[9] = Vero cell cytotoxicity, cytotoxicity control for M. tuberculosis inhibitor project, purified and synthesized samples, set 3 (AID 504684); type: functional
[10] = viability loss of HMLE_sh_eGFP cells – cell-based, luminescence, counter-screen for HMLE_sh_ECad selective toxicity project, dose response (AID 463074); type: functional, Homo sapiens;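 further: HMLE human mammary epithelial cells expressing control shRNA against eGFP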
[11] = A Cell Based Secondary Assay to Explore Cytotoxicity in HepG2 Cells of Compounds that Modulate Mycobacterium tuberculosis in Media Containing Glycerol versus Media without Glycerol (2).; type: functional
[12] = Vero cell cytotoxicity, dose response, cytotoxicity control for M. tuberculosis growth inhibitor project, Vero cells, purified and synthesized compounds, set 5 (AID 504909); type: functional; settings: Mycobacterium tuberculosis
[13] = SAR analysis of small molecule activators of Apaf-1 using a LZ-Caspase-9/Caspase-3 Fluorescent Selectivity assay - Set 2.; type: functional; settings: read-out: EC50_Mean
[14] = molecular target: T1, Apoptotic protease-activating factor 1 (Homo sapiens, UniProt O14727); experiment: SAR analysis of small molecule Activators of Apaf-1 in a Fluorescent assay - set 2.; type: functional; settings: read-out: EC50_Mean
T1 sequence (O14727 whole entry): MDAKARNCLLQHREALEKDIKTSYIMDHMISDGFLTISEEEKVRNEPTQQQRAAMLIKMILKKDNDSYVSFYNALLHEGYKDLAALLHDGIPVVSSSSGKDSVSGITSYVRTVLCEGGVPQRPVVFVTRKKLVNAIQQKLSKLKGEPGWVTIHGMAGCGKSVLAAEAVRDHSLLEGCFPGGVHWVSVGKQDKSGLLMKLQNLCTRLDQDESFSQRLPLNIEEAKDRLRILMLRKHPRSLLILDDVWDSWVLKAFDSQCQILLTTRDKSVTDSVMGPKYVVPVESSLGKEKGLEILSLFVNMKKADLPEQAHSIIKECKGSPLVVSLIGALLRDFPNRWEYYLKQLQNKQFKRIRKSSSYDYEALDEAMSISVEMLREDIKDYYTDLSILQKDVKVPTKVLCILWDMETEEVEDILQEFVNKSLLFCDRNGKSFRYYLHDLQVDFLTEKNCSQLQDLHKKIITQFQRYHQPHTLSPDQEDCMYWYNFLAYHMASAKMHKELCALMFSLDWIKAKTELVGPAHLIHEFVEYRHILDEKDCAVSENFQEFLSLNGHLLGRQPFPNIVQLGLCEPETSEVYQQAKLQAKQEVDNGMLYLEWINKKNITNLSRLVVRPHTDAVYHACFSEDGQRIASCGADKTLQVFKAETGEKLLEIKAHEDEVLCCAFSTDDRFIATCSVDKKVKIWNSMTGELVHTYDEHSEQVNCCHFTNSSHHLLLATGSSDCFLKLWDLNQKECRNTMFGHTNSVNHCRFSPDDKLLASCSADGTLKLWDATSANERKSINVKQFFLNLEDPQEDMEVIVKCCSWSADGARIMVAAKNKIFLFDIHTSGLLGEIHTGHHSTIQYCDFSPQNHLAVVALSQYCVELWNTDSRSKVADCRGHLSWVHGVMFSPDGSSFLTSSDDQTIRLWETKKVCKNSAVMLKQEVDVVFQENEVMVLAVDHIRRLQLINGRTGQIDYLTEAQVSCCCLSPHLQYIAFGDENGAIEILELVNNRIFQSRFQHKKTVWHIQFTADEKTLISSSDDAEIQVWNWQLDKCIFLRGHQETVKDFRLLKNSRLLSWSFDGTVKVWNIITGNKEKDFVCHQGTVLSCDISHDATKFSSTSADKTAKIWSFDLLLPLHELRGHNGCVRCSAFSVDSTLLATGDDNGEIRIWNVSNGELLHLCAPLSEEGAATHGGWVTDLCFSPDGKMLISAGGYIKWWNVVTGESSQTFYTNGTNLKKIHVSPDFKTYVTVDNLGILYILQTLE

[15] = molecular target: ORF 73 (Human herpesvirus 8, UniProt O40947); experiment: KSHV LANA DNA-binding disruption – biochemical, fluorescence polarization, cherry-picked samples, dose response (AID 504725); design: species or system Human gammaherpesvirus 8;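 further: fluorescence polarization of a labeled DNA duplex reporting LANA DNA binding; potency is for inhibitors that block LANA binding to the DNA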
[16] = molecular target: T2, DNA dC->dU-editing enzyme APOBEC-3G (Homo sapiens, UniProt Q9HC16); experiment: inhibition of APOBEC3G ssDNA deamination – biochemical, fluorescence, single-stranded DNA substrate, SAR follow-up (AID 602136); type: functional; settings: read-out: IC50_Mean
T2 sequence (Q9HC16 whole entry): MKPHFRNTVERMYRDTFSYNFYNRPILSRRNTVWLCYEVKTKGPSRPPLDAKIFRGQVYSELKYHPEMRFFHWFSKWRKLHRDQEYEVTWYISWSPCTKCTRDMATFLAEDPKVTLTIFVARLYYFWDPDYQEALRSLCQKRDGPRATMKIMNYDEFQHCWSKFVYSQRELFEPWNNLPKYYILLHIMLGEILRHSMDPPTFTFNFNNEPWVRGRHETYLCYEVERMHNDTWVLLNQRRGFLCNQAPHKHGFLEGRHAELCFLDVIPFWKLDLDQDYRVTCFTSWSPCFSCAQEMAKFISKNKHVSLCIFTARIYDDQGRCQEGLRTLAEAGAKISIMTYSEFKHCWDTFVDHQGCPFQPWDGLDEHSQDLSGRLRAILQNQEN

[17] = molecular target: T3, DNA dC->dU-editing enzyme APOBEC-3A (Homo sapiens, UniProt P31941); experiment: SAR analysis of small molecule inhibitors of APOBEC3A DNA Deaminase via a fluorescence-based single-stranded DNA deaminase assay - Set 2.; type: functional; settings: read-out: IC50_Mean
T3 sequence (P31941 whole entry): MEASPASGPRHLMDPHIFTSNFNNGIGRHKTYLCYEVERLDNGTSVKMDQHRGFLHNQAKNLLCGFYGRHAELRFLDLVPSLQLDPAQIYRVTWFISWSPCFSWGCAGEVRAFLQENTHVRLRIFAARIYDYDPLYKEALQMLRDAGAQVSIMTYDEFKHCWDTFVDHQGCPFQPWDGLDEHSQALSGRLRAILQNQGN

[18] = molecular target: T3, DNA dC->dU-editing enzyme APOBEC-3A; experiment: SAR analysis of small molecule inhibitors of APOBEC3A DNA Deaminase via a fluorescence-based single-stranded DNA deaminase assay.; type: functional; settings: read-out: IC50_Mean
[19] = molecular target: T4, Histone-lysine N-methyltransferase NSD2 (Homo sapiens, UniProt O96028); type: biochemical
T4 sequence (O96028 whole entry): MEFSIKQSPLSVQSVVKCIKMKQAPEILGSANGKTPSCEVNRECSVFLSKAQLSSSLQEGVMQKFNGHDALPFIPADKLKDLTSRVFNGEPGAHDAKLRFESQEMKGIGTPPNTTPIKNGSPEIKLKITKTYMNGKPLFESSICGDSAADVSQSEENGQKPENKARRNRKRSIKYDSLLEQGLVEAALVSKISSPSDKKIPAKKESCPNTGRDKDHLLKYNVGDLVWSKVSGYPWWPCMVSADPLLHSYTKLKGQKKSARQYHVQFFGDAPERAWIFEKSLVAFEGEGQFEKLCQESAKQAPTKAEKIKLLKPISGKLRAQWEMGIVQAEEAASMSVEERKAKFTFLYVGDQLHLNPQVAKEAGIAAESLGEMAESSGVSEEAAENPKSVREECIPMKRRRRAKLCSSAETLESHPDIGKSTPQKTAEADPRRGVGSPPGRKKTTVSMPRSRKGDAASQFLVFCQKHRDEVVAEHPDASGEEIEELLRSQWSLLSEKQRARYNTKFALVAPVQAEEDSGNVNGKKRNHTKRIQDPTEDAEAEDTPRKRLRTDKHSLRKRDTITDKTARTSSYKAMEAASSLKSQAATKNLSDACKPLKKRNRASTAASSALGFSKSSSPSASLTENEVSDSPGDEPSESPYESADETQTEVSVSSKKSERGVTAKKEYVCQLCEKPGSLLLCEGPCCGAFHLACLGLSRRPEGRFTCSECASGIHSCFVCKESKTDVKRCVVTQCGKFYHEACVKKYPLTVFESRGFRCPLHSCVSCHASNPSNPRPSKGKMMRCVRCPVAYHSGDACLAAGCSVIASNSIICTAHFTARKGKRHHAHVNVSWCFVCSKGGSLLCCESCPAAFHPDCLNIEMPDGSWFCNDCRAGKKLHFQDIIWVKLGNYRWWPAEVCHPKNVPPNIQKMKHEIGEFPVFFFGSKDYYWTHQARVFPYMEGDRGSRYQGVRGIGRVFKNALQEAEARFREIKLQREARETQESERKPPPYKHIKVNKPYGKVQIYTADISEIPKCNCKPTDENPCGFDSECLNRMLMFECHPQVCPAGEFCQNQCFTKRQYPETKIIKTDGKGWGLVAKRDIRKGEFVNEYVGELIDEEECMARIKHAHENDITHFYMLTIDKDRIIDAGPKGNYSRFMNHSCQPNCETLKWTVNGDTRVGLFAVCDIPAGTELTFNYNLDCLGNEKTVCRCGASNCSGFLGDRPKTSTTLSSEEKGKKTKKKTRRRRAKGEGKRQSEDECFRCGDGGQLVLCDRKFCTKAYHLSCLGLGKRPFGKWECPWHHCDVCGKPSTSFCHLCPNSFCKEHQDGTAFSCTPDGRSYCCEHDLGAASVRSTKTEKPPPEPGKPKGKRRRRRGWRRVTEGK

[20] = molecular target: Bifunctional protein GlmU (Mycobacterium tuberculosis, UniProt P9WMN3); experiment: Inhibitors of Mycobacterial Glucosamine-1-phosphate acetyl transferase (GlmU). Secondary screen.; design: species or system Mycobacterium tuberculosis H37Rv
[21] = molecular target: Ephrin type-A receptor 4 (Mus musculus, UniProt Q03137); experiment: EphA4 ligand-binding antagonists – biochemical, colorimetric, mouse EphA4, primary screen (AID 689); type: functional
Ephrin type-A receptor 4, sequence (Q03137 whole entry): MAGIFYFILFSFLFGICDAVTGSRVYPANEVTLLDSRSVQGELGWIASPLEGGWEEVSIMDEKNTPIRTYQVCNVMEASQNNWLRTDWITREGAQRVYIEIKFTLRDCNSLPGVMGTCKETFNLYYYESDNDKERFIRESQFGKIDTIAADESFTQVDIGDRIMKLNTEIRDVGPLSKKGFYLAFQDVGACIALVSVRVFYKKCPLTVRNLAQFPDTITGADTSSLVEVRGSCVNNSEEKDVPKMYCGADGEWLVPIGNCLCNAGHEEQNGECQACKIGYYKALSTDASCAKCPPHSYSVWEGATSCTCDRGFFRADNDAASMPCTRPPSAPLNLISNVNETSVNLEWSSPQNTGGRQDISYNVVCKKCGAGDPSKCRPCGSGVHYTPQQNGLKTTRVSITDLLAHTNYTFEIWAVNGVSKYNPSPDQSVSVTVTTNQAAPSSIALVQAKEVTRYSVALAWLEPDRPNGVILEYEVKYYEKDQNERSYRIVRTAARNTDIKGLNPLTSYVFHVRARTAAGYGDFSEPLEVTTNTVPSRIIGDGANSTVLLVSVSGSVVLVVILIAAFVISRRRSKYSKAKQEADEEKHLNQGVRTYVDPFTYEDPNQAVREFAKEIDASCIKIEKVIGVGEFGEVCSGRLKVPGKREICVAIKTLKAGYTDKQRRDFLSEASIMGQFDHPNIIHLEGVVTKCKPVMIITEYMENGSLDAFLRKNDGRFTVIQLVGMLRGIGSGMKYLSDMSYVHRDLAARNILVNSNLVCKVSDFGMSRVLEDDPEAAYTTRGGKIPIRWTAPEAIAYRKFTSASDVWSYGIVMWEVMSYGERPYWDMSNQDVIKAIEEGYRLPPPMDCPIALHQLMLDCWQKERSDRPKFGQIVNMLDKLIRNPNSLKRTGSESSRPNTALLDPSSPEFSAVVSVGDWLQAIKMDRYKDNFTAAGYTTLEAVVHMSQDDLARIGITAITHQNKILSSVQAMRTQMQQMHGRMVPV

[22] = molecular target: Protein-tyrosine kinase 2-beta (Homo sapiens, UniProt Q14289);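 further: potency of inhibitors of PYK2 kinase phosphorylation of poly-GT substrate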
Protein-tyrosine kinase 2-beta, sequence (Q14289 whole entry): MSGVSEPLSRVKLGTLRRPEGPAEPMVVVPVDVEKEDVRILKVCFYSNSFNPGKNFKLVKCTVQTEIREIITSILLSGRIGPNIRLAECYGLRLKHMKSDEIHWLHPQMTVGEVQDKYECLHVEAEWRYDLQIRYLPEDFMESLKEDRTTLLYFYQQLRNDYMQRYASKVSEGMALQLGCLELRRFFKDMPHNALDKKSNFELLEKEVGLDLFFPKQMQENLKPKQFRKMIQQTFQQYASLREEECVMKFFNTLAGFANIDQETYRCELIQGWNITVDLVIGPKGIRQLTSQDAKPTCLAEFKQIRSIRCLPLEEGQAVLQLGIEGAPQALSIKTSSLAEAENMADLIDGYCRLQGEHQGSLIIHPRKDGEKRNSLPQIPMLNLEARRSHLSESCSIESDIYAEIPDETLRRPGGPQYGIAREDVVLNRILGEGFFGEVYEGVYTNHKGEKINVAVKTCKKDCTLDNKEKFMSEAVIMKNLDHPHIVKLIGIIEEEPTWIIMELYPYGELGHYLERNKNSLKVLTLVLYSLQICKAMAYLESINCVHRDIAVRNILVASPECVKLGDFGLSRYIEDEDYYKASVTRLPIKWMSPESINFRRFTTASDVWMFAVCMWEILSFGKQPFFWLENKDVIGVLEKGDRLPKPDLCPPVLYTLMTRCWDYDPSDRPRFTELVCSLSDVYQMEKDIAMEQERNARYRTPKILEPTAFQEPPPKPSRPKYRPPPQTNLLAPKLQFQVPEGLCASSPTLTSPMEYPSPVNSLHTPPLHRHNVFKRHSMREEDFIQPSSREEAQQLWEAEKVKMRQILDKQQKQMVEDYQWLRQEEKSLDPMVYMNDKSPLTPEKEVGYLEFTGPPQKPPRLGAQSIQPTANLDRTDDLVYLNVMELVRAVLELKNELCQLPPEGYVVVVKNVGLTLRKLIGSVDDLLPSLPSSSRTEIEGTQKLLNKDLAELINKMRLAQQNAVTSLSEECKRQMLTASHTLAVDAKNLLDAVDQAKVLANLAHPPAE

[23] = molecular target: T5, Alkaline phosphatase, tissue-nonspecific isozyme (Homo sapiens, UniProt P05186); experiment: TNAP enzyme inhibition by screening hits, dose response, selectivity assay for mouse IAP inhibitor project, biochemical, human TNAP, uHTS hits (AID 488906); type: functional
T5 sequence (P05186 whole entry): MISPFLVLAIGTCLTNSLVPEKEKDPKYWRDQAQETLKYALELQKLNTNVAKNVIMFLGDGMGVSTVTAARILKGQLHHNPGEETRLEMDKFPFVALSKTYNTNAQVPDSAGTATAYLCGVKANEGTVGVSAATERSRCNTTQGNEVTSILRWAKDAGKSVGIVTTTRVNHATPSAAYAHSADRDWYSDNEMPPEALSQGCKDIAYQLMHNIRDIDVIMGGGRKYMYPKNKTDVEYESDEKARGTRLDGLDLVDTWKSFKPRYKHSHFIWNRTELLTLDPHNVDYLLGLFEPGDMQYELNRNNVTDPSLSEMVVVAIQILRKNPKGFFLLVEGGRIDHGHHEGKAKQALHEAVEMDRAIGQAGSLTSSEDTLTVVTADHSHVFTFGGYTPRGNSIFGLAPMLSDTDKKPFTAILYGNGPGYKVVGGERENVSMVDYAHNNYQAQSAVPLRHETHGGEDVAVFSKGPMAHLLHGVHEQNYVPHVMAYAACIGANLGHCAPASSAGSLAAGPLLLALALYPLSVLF

[24] = molecular target: Intestinal-type alkaline phosphatase (Mus musculus, UniProt P24822); experiment: PubChem AID 488785; type: functional
Intestinal-type alkaline phosphatase (Mus musculus, UniProt P24822), sequence (P24822 whole entry): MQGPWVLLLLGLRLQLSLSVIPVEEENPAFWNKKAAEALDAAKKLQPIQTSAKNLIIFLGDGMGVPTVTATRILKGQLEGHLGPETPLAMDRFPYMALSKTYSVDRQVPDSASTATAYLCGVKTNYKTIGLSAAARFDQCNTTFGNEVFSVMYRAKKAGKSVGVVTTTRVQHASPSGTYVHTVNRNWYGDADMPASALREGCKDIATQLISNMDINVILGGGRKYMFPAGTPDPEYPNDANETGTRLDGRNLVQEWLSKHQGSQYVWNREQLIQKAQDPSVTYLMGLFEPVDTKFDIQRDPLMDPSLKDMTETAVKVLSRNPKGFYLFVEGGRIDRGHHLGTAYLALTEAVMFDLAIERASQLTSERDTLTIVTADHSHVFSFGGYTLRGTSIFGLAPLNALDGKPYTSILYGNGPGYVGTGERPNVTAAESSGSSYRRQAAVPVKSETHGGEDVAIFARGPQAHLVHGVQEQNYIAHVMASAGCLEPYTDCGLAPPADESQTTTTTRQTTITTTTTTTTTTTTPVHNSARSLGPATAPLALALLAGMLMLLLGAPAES

[25] = molecular target: 1-phosphatidylinositol 4,5-bisphosphate phosphodiesterase beta-3 (Homo sapiens, UniProt Q01970); experiment: Fluorescence-based biochemical high throughput dose response assay to identify inhibitors of phospholipase C isozymes (PLC-B3).
1-phosphatidylinositol 4,5-bisphosphate phosphodiesterase beta-3, sequence (Q01970 whole entry): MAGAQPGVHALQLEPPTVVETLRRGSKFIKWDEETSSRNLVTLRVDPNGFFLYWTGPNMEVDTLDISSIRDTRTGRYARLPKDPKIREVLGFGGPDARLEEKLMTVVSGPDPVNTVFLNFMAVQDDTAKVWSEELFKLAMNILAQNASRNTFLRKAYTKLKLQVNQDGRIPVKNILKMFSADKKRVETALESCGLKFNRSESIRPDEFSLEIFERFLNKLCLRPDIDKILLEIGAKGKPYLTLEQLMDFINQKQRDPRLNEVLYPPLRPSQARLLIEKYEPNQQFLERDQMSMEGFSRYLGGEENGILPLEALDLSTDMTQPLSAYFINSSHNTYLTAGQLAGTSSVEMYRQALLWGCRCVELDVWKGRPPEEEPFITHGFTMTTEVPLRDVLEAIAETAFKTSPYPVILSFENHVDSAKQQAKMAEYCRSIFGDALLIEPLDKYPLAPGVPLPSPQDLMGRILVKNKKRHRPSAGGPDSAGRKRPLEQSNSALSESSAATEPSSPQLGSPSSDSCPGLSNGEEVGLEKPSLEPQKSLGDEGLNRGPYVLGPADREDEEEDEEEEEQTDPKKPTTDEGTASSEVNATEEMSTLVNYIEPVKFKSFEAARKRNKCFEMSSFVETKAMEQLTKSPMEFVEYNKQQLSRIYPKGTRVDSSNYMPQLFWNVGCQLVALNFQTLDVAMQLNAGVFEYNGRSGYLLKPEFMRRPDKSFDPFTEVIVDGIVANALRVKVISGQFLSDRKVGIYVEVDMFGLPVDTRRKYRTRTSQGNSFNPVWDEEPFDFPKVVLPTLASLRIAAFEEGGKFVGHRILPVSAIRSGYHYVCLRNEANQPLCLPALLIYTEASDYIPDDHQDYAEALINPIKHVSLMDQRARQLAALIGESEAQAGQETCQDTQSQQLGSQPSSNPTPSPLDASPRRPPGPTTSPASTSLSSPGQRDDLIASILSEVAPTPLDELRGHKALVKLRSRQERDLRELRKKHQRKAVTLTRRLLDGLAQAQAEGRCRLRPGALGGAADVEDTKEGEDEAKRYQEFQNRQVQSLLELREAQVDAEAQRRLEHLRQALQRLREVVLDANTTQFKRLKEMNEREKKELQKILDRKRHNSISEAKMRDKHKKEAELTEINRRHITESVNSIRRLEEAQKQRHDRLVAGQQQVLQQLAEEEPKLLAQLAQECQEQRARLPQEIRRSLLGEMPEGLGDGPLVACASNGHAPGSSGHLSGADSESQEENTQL

[26] = IC50 of Artemis nuclease activity blockers – biochemical, fluorescence intensity, dose response (AID 720701); type: functional;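 further: Artemis endonuclease enzyme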
[27] = molecular target: Troponin, cardiac muscle (Homo sapiens, UniProt P19429+P45379+P63316); experiment: compounds desensitizing RTF to calcium – biochemical, fluorescence, cardiac regulated thin filaments, triplicate IC50, dose response (AID 504742); type: protein-complex assay
[28] = molecular target: T2, DNA dC->dU-editing enzyme APOBEC-3G; experiment: SAR analysis of small molecule inhibitors of APOBEC3G DNA Deaminase via a fluorescence-based single-stranded DNA deaminase assay - Set 2.; type: functional; settings: read-out: IC50_Mean
[29] = molecular target: 1-phosphatidylinositol 4,5-bisphosphate phosphodiesterase gamma-1 (Homo sapiens, UniProt P19174); experiment: Counterscreen for inhibitors of phospholipase C isozymes (PLC-B3): Fluorescence-based biochemical high throughput dose response assay to identify inhibitors of phospholipase C isozymes (PLC-gamma1).
[30] = molecular target: Intestinal-type alkaline phosphatase (Homo sapiens, UniProt P09923); experiment: inhibition of human intestinal alkaline phosphatase – biochemical, dose response (AID 488876); type: functional
[31] = molecular target: Melanin-concentrating hormone receptor 1 (Homo sapiens, UniProt Q99705); experiment: Late-stage fluorescence-based counterscreen for antagonists of the G-protein coupled receptor 7 (GPR7): cell-based dose response assay to identify antagonists of the melanin-concentrating hormone receptor 1 (MCHR1) Set 6.; type: functional
Melanin-concentrating hormone receptor 1, sequence (Q99705 whole entry): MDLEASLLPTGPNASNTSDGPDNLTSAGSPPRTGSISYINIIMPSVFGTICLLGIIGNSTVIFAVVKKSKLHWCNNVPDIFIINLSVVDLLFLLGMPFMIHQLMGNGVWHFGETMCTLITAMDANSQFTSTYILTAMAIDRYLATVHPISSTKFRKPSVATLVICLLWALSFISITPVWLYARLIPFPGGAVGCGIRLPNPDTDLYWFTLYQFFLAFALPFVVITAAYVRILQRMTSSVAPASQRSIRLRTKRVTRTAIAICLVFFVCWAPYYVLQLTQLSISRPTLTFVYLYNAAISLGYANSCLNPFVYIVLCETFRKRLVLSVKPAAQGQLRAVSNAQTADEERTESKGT

[32] = molecular target: Neuropeptides B/W receptor type 1 (Homo sapiens, UniProt P48145); experiment: human NPBW1 receptor blockade, IC50 – cell-based, fluorescence, dose response, set 6, late-stage follow-up (AID 588583); type: functional
Neuropeptides B/W receptor type 1, sequence (P48145 whole entry): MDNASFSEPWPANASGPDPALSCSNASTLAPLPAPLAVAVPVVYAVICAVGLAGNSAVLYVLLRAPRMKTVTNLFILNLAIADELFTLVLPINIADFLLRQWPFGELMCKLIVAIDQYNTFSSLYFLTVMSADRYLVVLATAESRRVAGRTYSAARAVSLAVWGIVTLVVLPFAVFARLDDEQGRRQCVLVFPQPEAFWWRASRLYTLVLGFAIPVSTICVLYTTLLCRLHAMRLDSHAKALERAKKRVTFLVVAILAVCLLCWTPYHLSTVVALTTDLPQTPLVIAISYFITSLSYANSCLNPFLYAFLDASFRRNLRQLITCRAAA

Cc1cccc(-c2oc3ccc(-c4ccc5c(c4)OCO5)cc3c2C#Cc2cncn2C)c1
CC50 [1]: 34.6 µM (active)
CC50 [2]: > 50 µM (active)
CC50 [3]: > 40 µM (active)
CC50 [4]: > 50 µM (active)
CC50 [5]: > 93 µM (active)
CC50 [6]: > 44.8 µM (active)
AC50 [7]: 5.28 µM (active)
CC50 [8]: 43.8 µM (active)
CC50 [9]: 42.3 µM (active)
AC50 [10]: 21.8 µM (active)
CC50 [11]: > 50 µM (active)
CC50 [12]: 85.2 µM (active)

COc1ccc(C2=NOC(C(=O)O)C2)cc1 (configuration not stated)
EC50 [13]: > 100 µM (inactive)
EC50 [14]: > 100 µM (inactive)

CC(C(=O)O)N1C(=O)/C(=C/C=C/c2ccco2)SC1=S (configuration not stated)
AC50 [15]: 45.6 µM (active)
IC50 [16]: 2.08 µM (active)
IC50 [17]: 1.21 µM (active)
IC50 [18]: 1.19 µM (active)
AC50 [19]: 1.63 µM (active)
IC50 [20]: 61.4 µM (active)
IC50 [21]: 2.79 µM (active)
IC50 [22]: 1.07 µM (active)
IC50 [23]: > 100 µM (inactive)
IC50 [24]: 10 µM (active)
IC50 [25]: > 122 µM (inactive)
IC50 [26]: > 20 µM (inactive)
IC50 [27]: > 71.5 µM (inactive)
IC50 [28]: 0.884 µM (active)
IC50 [29]: > 122 µM (inactive)
IC50 [30]: > 100 µM (inactive)

N#CC(c1ccc(F)cc1)c1c(Br)cnn(Cc2cccc3ccccc23)c1=O (configuration not stated)
IC50 [31]: 0.24 µM (active)
IC50 [32]: 0.24 µM (active)
